Assay results taken from patent US10052320B2, “Substituted quinoxalines as FGFR kinase inhibitors” (ASTEX THERAPEUTICS LIMITED, priority 2011, dated 2018).
Where two headings read alike, the source gives them in different places.

Key:
[1] = target: Ba/F3-KDR-transfected cells (Homo sapiens, UniProt P35968); assay: Ba/F3-KDR (minus IL3) cellular proliferation assay, Alamar Blue; assay type: cell-based
Procedure: Ba/F3-KDR (Minus IL3 or Plus IL3) (Cellular Proliferation Assay)
(§1) In a 384 well plate, 100 nl of compound dilution in DMSO was sprayed before adding 50 μl cell culture medium (phenol red free RPMI-1640, 10% FBS, 2 mM L-Glutamine and 50 μg/ml Gentamycin) containing 20000 cells per well of Ba/F3-KDR-transfected cells. Cells were put in an incubator at 37° C. and 5% CO2. After 24 hours, 10 μl of Alamar Blue solution (0.5 mM K3Fe(CN)6, 0.5 mM KaFe(CN)6, 0.15 mM Resazurin and 100 mM Phosphate Buffer) was added to the wells, incubated for 4 hours at 37° C. and 5% CO2 before RFU's (Relative Fluorescence Units) (ex. 540 nm., em. 590 nm.) were measured in a flurorescence plate reader.
(§2) As a counterscreen the same experiment was performed in the presence of 10 ng/ml murine IL3.
as §1, with “a 96” for “a 384”, “plate, 180” for “plate, 100 nl of compound dilution in DMSO was sprayed before adding 50”, “containing 10000” for “containing 20000”, “Ba/F3-KDR-transfected cells were pipette and 20 μl of compound dilution in DMSO was added.” for “Ba/F3-KDR-transfected cells.”, “hours, 40” for “hours, 10”, “CO2” for “CO2 before”

KDR (h) (VEGFR2) = KDR (h) (VEGFR2) (Homo sapiens, UniProt P35968); assay: KDR (VEGFR2) (enzymatic assay), TR-FRET; assay type: biochemical
KDR (h) (VEGFR2), sequence (P35968 20-1356): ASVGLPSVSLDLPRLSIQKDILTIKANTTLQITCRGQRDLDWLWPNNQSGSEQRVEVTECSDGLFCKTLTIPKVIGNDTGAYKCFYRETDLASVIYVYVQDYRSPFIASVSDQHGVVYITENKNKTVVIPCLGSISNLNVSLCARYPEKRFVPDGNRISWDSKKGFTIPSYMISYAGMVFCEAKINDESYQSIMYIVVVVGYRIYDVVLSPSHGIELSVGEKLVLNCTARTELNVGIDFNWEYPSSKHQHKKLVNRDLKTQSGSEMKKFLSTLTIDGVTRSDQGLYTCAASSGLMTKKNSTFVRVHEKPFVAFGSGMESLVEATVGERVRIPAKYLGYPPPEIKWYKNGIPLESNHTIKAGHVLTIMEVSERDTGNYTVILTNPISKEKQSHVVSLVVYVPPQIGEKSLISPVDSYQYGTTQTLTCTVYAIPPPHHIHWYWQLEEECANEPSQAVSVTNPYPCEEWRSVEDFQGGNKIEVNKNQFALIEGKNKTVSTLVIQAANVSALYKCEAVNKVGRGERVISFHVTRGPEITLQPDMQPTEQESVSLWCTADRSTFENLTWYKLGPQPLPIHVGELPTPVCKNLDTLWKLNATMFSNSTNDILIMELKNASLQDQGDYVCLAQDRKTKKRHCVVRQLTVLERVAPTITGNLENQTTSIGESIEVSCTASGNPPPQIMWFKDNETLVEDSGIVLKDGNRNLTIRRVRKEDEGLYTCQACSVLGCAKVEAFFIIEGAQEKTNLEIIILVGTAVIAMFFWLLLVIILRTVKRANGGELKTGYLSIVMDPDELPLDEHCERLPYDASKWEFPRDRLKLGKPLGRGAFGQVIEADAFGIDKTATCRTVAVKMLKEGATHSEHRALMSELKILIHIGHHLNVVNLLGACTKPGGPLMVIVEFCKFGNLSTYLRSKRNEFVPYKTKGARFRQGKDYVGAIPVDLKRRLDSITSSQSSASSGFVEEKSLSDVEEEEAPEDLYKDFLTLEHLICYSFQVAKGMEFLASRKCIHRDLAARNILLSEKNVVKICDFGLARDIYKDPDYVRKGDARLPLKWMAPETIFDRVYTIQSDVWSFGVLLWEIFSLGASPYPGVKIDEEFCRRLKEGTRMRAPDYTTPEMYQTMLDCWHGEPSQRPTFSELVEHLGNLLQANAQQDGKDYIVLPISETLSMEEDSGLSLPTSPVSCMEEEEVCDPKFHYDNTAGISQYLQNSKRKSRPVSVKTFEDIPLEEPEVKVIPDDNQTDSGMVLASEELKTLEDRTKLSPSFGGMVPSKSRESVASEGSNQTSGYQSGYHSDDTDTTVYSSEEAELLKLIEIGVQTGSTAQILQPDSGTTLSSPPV
Procedure: KDR (VEGFR2) (Enzymatic Assay)
In a final reaction volume of 30 μL, KDR (h) (150 ng/ml) was incubated with 50 mM HEPES pH 7.5, 6 mM MnCl2, 1 mM DTT, 0.1 mM Na3VO4, 0.01% Triton-X-100, 500 nM Btn-Flt3 and 3 μM ATP in the presence of compound (1% DMSO final). After incubation for 120 minutes at room temperature the reaction was stopped with 2.27 nM EU-anti P-Tyr, 7 mM EDTA, 31.25 nM SA-XL-665 and 0.02% BSA which was present for 60 minutes at room temperature. Time-Resolved Fluorescence Resonance Energy Transfer (TR-FRET) signal (ex340 nm. Em 620 nm, em 655 nm) was measured afterwards and results are expressed in RFU (Relative Fluorescence Units).

[2] = target: T1, Ba/F3-Flt3-transfected cells (Homo sapiens, UniProt P36888, cells depend on it, form not given); assay: Ba/F3-Flt3 (minus IL3) cellular proliferation assay, Alamar Blue; assay type: cell-based
T1 sequence (P36888 1-993): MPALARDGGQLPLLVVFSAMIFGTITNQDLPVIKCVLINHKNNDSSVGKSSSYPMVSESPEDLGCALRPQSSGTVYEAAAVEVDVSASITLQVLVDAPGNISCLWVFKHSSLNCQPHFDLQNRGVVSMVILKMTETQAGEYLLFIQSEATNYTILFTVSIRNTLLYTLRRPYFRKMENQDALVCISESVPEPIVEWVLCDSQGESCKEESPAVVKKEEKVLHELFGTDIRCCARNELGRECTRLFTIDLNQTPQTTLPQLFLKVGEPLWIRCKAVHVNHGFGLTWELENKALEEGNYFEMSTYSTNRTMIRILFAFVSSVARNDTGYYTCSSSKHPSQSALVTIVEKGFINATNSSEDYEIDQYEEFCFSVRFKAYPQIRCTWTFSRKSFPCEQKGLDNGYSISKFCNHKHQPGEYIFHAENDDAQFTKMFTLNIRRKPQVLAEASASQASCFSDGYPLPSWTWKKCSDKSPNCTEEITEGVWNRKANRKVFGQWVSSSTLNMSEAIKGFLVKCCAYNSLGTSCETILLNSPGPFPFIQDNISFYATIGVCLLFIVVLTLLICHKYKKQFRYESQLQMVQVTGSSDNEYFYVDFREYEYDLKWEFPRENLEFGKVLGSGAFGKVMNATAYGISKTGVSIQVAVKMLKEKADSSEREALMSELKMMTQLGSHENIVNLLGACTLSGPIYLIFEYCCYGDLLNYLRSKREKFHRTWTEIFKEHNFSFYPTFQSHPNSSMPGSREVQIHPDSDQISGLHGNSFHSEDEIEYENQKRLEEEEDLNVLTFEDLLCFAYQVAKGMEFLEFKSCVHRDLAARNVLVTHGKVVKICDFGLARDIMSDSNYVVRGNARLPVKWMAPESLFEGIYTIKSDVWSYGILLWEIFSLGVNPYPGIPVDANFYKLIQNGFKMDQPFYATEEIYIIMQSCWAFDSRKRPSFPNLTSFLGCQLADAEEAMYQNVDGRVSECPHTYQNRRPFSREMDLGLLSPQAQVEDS
Procedure: (§3) Ba/F3-Flt3 (Minus IL3 or Plus IL3) (Cellular Proliferation Assay)
Cells were put in an incubator at 37° C. and 5% CO2. After 24 hours, 10 μl of Alamar Blue solution (0.5 mM K3Fe(CN)6, 0.5 mM KaFe(CN)6, 0.15 mM Resazurin and 100 mM Phosphate Buffer) was added to the wells, incubated for 4 hours at 37° C. and 5% CO2 before RFU's (Relative Fluorescence Units) (ex. 540 nm., em. 590 nm.) were measured in a flurorescence plate reader. […]
as §1, with “a 96” for “a 384”, “plate, 180” for “plate, 100 nl of compound dilution in DMSO was sprayed before adding 50”, “containing 10000” for “containing 20000”, “of Ba/F3-Flt3-transfected cells were pipette and 20 μl of compound dilution in DMSO was added.” for “of Ba/F3-KDR-transfected cells.”, “hours, 40” for “hours, 10”

[3] = test system: Ba/F3-Flt3-transfected cells in the presence of 10 ng/ml murine IL3; assay: Ba/F3-Flt3 (plus IL3) cellular proliferation counterscreen, Alamar Blue; assay type: cell-based; conditions: Mus musculus, read-out: BAF3-FLT3 (PLUS IL3) 96 well pIC50 (converted)
[4] = test system: Ba/F3-FGFR1-transfected cells in the presence of 10 ng/ml murine IL3; assay: Ba/F3-FGFR1 (plus IL3) cellular proliferation counterscreen, Alamar Blue; assay type: cell-based; conditions: Mus musculus; plus IL3, 384 well; read-out: BAF3-FGFR 1 (PLUS IL3) 384 well pIC50 (converted)
Procedure: Ba/F3-FGFR1 (Minus IL3 or Plus IL3) (Cellular Proliferation Assay)
as §1, with “Ba/F3-FGFR1-transfected” for “Ba/F3-KDR-transfected”
as §2
as §1, with “a 96” for “a 384”, “plate, 180” for “plate, 100 nl of compound dilution in DMSO was sprayed before adding 50”, “containing 10000” for “containing 20000”, “of Ba/F3-FGFR1-transfected cells were pipette and 20 μl of compound dilution in DMSO was added.” for “of Ba/F3-KDR-transfected cells.”, “hours, 40” for “hours, 10”

[5] = test system: Ba/F3-Flt3-transfected cells in the presence of 10 ng/ml murine IL3; assay: Ba/F3-Flt3 (plus IL3) cellular proliferation counterscreen, Alamar Blue; assay type: cell-based; conditions: Mus musculus; plus 10 ng/ml murine IL3; read-out: BAF3-FLT3 (PLUS IL3) 384 well pIC50 (converted)
Procedure: as §3
as §1, with “Ba/F3-Flt3-transfected” for “Ba/F3-KDR-transfected”
as §2
as §1, with “a 96” for “a 384”, “plate, 180” for “plate, 100 nl of compound dilution in DMSO was sprayed before adding 50”, “containing 10000” for “containing 20000”, “of Ba/F3-Flt3-transfected cells were pipette and 20 μl of compound dilution in DMSO was added.” for “of Ba/F3-KDR-transfected cells.”, “hours, 40” for “hours, 10”

Ba/F3-KDR-transfected cells, sequence (P35968 whole entry, change not shown): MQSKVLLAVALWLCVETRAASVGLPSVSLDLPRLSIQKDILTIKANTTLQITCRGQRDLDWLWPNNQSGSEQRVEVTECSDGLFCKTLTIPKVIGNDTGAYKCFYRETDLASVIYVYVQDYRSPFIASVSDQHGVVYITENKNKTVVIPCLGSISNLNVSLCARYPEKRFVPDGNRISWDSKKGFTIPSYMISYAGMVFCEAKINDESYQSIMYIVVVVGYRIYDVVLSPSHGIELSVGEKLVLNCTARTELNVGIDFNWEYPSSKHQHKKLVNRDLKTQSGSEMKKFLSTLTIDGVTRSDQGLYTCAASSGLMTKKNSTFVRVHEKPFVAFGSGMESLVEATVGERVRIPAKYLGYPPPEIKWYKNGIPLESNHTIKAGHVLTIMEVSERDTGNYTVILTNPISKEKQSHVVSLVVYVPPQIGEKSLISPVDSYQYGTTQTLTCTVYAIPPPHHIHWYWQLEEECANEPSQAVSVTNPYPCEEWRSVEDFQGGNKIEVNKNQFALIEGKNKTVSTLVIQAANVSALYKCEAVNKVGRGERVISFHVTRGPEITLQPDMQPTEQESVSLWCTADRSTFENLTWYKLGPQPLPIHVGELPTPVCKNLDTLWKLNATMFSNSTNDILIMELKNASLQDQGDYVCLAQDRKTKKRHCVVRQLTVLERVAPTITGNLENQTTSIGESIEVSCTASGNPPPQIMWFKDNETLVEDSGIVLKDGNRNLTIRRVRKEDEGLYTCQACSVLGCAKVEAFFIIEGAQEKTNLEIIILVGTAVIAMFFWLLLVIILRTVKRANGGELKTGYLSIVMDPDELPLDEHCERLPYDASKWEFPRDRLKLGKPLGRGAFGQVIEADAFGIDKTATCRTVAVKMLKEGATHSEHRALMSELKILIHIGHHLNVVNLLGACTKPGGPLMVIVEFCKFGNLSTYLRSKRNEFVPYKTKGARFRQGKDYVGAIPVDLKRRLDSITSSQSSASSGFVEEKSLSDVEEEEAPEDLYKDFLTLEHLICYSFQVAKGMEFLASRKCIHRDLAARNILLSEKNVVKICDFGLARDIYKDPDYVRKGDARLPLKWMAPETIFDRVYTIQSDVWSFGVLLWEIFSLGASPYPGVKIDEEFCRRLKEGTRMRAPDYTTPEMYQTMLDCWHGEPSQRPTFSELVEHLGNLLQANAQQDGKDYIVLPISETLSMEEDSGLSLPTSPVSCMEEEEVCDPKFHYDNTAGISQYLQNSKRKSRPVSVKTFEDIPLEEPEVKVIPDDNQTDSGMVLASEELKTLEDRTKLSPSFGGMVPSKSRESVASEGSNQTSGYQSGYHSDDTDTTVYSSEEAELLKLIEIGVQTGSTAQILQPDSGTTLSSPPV

| melting point [°C] | BAF3-KDR (MIN IL3) 384 well pIC50 ([1]; minus IL3, 384 well) | IC50 (KDR (h) (VEGFR2)) [µM] | BAF3-FLT3 (MIN IL3) 96 well pIC50 ([2]; minus IL3, 96 well) | BAF3-FLT3 (MIN IL3) 384 well pIC50 ([2]; minus IL3, 384 well) | BAF3-KDR (MIN IL3) 96 well pIC50 ([1]; minus IL3) | BAF3-KDR (MIN IL3) 384 well pIC50 ([1]; minus IL3) | BAF3-FLT3 (MIN IL3) 96 well pIC50 ([2]; minus IL3) | BAF3-FLT3 (MIN IL3) 384 well pIC50 ([2]; minus IL3) | SMILES | IC50 ([3]; plus IL3, 96 well) [µM] | IC50 ([3]; plus 10 ng/ml murine IL3) [µM] | IC50 [4] [µM] | IC50 [5] [µM] |
| --- | --- | --- | --- | --- | --- | --- | --- | --- | --- | --- | --- | --- | --- |
| 105 | <5 | 1.91 | <5 | <5 | – | – | – | – | COc1cc(OC)cc(N(CC2CC2)c2ccc3ncc(-c4ccncc4)nc3c2)c1 [Compound 89] | > 10 | – | – | – |
| 116 | <5 | > 10 | <5 | <5 | – | – | – | – | COc1cc(OC)cc(N(CC2CC2)c2ccc3ncc(-c4ccc(OC)nc4)nc3c2)c1 [Compound 91] | > 10 | – | – | – |
| 185 | – | 2.14 | – | – | <5 | <5 | <5 | <5 | COc1cc(OC)cc(N(CC2CC2)c2ccc3ncc(-c4ccc(N)nc4)nc3c2)c1 [Compound 94] | – | > 10 | – | – |
| 84 | – | > 1 | – | – | – | <5 | – | <5 | COc1cc(OC)cc(N(CC2CC2)c2ccc3ncc(-c4ccccc4)nc3c2)c1 [Compound 119] | – | – | – | – |
| – | – | > 1 | – | – | – | <5 | – | – | COc1cc(OC)cc(N(CCCO)c2ccc3ncc(-c4cnc(OC)nc4)nc3c2)c1 [Compound 141] | – | – | > 10 | > 10 |
